Literature values in article PMC9788431, “Combination of Docking-Based and Pharmacophore-Based Virtual Screening Identifies Novel Agonists That Target the Urotensin Receptor” (Molecules, 2022).
Values joined by “and” are separate entries in the source; they are usually repeats but may differ in a detail not shown here. Identical values can stand only once. Non-standard residues stand in square brackets, D forms with d. Residues, ends and D or L forms follow the SMILES beside them.

Target: T1, UT receptor (Homo sapiens, UniProt Q9UKP6)
T1 construct: SNAP-tag; expressed in transfected cells; host or cells: 293A8 (HEK293A stably transfected with the UT receptor); inferred, the calcium-assay paragraph names no cells
T1 sequence (Q9UKP6 1-389): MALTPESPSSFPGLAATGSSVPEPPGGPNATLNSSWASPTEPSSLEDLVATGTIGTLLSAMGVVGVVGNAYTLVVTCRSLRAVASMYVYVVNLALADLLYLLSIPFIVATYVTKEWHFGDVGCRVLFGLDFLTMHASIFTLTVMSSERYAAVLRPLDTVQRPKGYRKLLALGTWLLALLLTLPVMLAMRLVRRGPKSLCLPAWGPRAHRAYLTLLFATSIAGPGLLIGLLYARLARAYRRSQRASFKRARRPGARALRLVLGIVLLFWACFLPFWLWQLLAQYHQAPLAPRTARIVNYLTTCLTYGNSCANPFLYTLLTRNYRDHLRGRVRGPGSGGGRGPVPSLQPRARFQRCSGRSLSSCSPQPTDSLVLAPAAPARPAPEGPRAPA
Conditions: agonist; Table S1 benchmarking ligands; ref ChEMBL database and others; cited from earlier work

SMILES | EC50
CC(C)[C@H](NC(=O)[C@H](CS)NC(=O)[C@H](Cc1ccc(O)cc1)NC(=O)[C@H](CCCCN)NC(=O)[C@H](Cc1c[nH]c2ccccc12)NC(=O)[C@H](Cc1ccccc1)NC(=O)[C@@H](N)CS)C(=O)O [CHEMBL53181] (H-CFWKYCV-OH) | 1.8 nM
CN(C)CCC(OC(=O)Nc1ccc(C(F)(F)F)cc1)c1ccc(Cl)cc1 (stereo not shown) [CHEMBL203051] | 251 nM
CN(C)CCC(NC(=O)c1ccc(Oc2ccccc2)cc1)c1ccc(Cl)cc1 (stereo not shown) [CHEMBL203626] | 66.1 nM
CN(C)CCC(OC(=O)Nc1ccc2ccccc2c1)c1ccc(Cl)cc1 (stereo not shown) [CHEMBL203937] | 525 nM
CN(C)CCC(NC(=O)c1ccc(C(F)(F)F)cc1)c1ccc(Cl)cc1 (stereo not shown) [CHEMBL204988] | 77.6 nM
CN(C)CCC(NC(=O)Nc1ccc(C(C)(C)C)cc1)c1ccc(Cl)cc1 (stereo not shown) [CHEMBL205681] | 275 nM
CN(C)CCC(OC(=O)c1ccc(-c2ccccc2)cc1)c1ccc(Cl)cc1 (stereo not shown) [CHEMBL205991] | 525 nM
CN(C)CCC(NC(=O)Nc1ccc2ccccc2c1)c1ccc(Cl)cc1 (stereo not shown) [CHEMBL206551] | 288 nM
CN(C)CCC(NC(=O)Nc1ccc(-c2ccccc2)cc1)c1ccc(Cl)cc1 (stereo not shown) [CHEMBL206811] | 145 nM
Cc1cc(C)c(C(=O)OC(CCN(C)C)c2ccc(Cl)cc2)cc1C (stereo not shown) [CHEMBL206832] | 468 nM
CN(C)CC[C@H](NC(=O)c1ccc2ccccc2c1)c1ccc(Cl)cc1 [CHEMBL207783] | 407 nM
CN(C)CC[C@H](NC(=O)c1ccc(-c2ccccc2)cc1)c1ccc(Cl)cc1 [CHEMBL207823] | 32.4 nM
CC(C)[C@H](NC(=O)[C@H](CS)NC(=O)[C@H](Cc1ccc(O)cc1)NC(=O)[C@H](CCCCN)NC(=O)[C@H](Cc1c[nH]c2ccccc12)NC(=O)[C@H](Cc1ccccc1)NC(=O)[C@H](CS)NC(=O)[C@H](CC(=O)O)NC(=O)[C@H]1CCCN1)C(=O)O [CHEMBL216349] (H-[dP]DCFWKYCV-OH) | 3.6 nM
CN(C)CCC(NC(=O)/C=C/c1ccc(C(F)(F)F)cc1)c1ccc(Cl)cc1 (stereo not shown) [CHEMBL228470] | 129 nM
CN(C)CCC(NC(=O)C#Cc1ccccc1)c1ccc(Cl)cc1 (stereo not shown) [CHEMBL228471] | 398 nM
CN(C)CCC(NC(=O)CCc1ccccc1)c1ccc2ccccc2c1 (stereo not shown) [CHEMBL229709] | 603 nM
CN(C)CCC(NC(=O)CCc1ccc(C(F)(F)F)cc1)c1ccc2ccccc2c1 (stereo not shown) [CHEMBL229710] | 372 nM
CN(C)CCC(NC(=O)/C=C/c1ccc(C(F)(F)F)cc1)c1ccc2ccccc2c1 (stereo not shown) [CHEMBL229713] | 135 nM
COc1ccc(/C=C/C(=O)NC(CCN(C)C)c2ccc3ccccc3c2)cc1 (stereo not shown) [CHEMBL229714] | 380 nM
CN(C)CCC(NC(=O)C#Cc1ccccc1)c1ccc2ccccc2c1 (stereo not shown) [CHEMBL229764] | 457 nM
Cc1ccc(C(CCN(C)C)NC(=O)/C=C/c2ccc(C(F)(F)F)cc2)cc1 (stereo not shown) [CHEMBL229923] | 437 nM

SMILES | EC50
NCCCC[C@H](NC(=O)[C@H](Cc1c[nH]c2ccccc12)NC(=O)[C@H](Cc1ccccc1)NC(=O)[C@@H](N)CS)C(=O)N[C@@H](Cc1ccc(O)cc1)C(=O)N[C@@H](CS)C(N)=O [CHEMBL298803] (H-CFWKYC-NH2) | 2.3 nM
CN(C)CCC(NC(=O)/C=C/c1ccccc1)c1ccc(Cl)cc1 (stereo not shown) [CHEMBL374817] | 427 nM
Cc1cc2c(cc1C)C(=O)OC(CCN(C)C)(c1ccc(Cl)cc1)C2 (stereo not shown) [CHEMBL380346] | 135 nM
CN(C)CCC(OC(=O)Nc1ccc(Oc2ccccc2)cc1)c1ccc(Cl)cc1 (stereo not shown) [CHEMBL383326] | 191 nM
CN(C)CCC(NC(=O)Nc1ccc(Oc2ccccc2)cc1)c1ccc(Cl)cc1 (stereo not shown) [CHEMBL383698] | 110 nM
C[C@@H](O)[C@H](NC(=O)[C@@H](N)CCC(=O)O)C(=O)N1CCC[C@@H]1C(=O)N[C@@H](CC(=O)O)C(=O)N[C@@H](CS)C(=O)N[C@@H](Cc1ccccc1)C(=O)N[C@@H](Cc1c[nH]c2ccccc12)C(=O)N[C@@H](CCCCN)C(=O)N[C@@H](Cc1ccc(O)cc1)C(=O)N[C@@H](CS)C(=O)O [CHEMBL385616] (H-ET[dP]DCFWKYC-OH) | 1.8 nM
CC(C)[C@H](NC(=O)[C@H](CS)NC(=O)[C@H](Cc1ccc(O)cc1)NC(=O)[C@H](CCCCN)NC(=O)[C@@H](Cc1c[nH]c2ccccc12)NC(=O)[C@H](Cc1ccccc1)NC(=O)[C@H](CS)NC(=O)[C@H](CC(=O)O)NC(=O)[C@H]1CCCN1C(=O)[C@@H](NC(=O)[C@@H](N)CCC(=O)O)[C@@H](C)O)C(=O)O [CHEMBL385962] | 3.8 nM
COc1ccc(/C=C/C(=O)NC(CCN(C)C)c2ccc(Cl)cc2)cc1 (stereo not shown) [CHEMBL387661] | 513 nM
CN(C)CCC(NC(=O)/C=C/c1ccccc1)c1ccc2ccccc2c1 (stereo not shown) [CHEMBL387694] | 589 nM
CN(C)CCC(NC(=O)Cc1ccc(C(F)(F)F)cc1)c1ccc2ccccc2c1 (stereo not shown) [CHEMBL390792] | 575 nM
CC(C)[C@H](NC(=O)[C@H](CS)NC(=O)[C@H](Cc1ccc(O)cc1)NC(=O)[C@H](CCCCN)NC(=O)[C@H](Cc1c[nH]c2ccccc12)NC(=O)[C@H](Cc1ccccc1)NC(=O)[C@H](CS)NC(=O)[C@H](CC(=O)O)NC(=O)[C@H]1CCCN1C(=O)[C@@H](NC(=O)[C@@H](N)CCC(=O)O)[C@@H](C)O)C(=O)O [CHEMBL408106] | 2.5 nM
CC(C)[C@H](NC(=O)[C@H](CS)NC(=O)[C@H](Cc1ccc(O)cc1)NC(=O)[C@H](CCCCN)NC(=O)[C@H](Cc1c[nH]c2ccccc12)NC(=O)[C@H](CS)NC(=O)[C@H](CC(=O)O)NC(=O)[C@H]1CCCN1C(=O)[C@@H](NC(=O)[C@@H](N)CCC(=O)O)[C@@H](C)O)C(=O)O [CHEMBL412753] (H-ET[dP]DCWKYCV-OH) | 53 nM
CC(C)[C@H](NC(=O)[C@H](CS)NC(=O)[C@H](Cc1ccc(O)cc1)NC(=O)[C@H](CCCCN)NC(=O)[C@H](Cc1c[nH]c2ccccc12)NC(=O)[C@H](Cc1ccccc1)NC(=O)[C@H](CS)NC(=O)[C@@H](N)CC(=O)O)C(=O)O [CHEMBL414256] (H-DCFWKYCV-OH) | 3 nM
CN(C)CCC(NC(=O)Nc1ccc(C(F)(F)F)cc1)c1ccc(Cl)cc1 (stereo not shown) [CHEMBL425592] | 117 nM
CC(C)[C@H](NC(=O)[C@H](CS)NC(=O)[C@H](Cc1ccc(O)cc1)NC(=O)[C@H](CCCCN)NC(=O)[C@H](Cc1c[nH]c2ccccc12)NC(=O)[C@H](Cc1ccccc1)NC(=O)[C@H](CS)NC(=O)[C@H](CC(=O)O)NC(=O)[C@H]1CCCN1C(=O)[C@@H](N)[C@@H](C)O)C(=O)O [CHEMBL427632] (H-T[dP]DCFWKYCV-OH) | 2.4 nM
CN(C)CCC1(c2ccc(Cl)cc2)Cc2ccccc2C(=O)O1 (stereo not shown) [CHEMBL535141] | 251 nM and 316 nM
CN(C)CCC(NC(=O)c1ccc(-c2ccc3ccccc3c2)cc1)c1ccc(Cl)cc1 (stereo not shown) [CHEMBL572391] | 309 nM
Cc1ccc(C(CCN(C)C)NC(=O)c2cccc(-c3ccccc3)c2)cc1 (stereo not shown) [CHEMBL572392] | 813 nM
Cc1ccc(C(CCN(C)C)NC(=O)c2ccc(-c3ccccc3)cc2)cc1 (stereo not shown) [CHEMBL572398] | 200 nM
CN(C)CCC(NC(=O)c1ccc(-c2ccc(Cl)cc2)cc1)c1ccc2ccccc2c1 (stereo not shown) [CHEMBL572439] | 43.6 nM
CO[C@@H](C(=O)N[C@@H](CCN(C)C)c1ccc2ccccc2c1)c1ccccc1 [CHEMBL572454] | 741 nM

SMILES | EC50
O=C(NC(CCN1CCCCC1)c1ccc(Cl)cc1)c1ccc(-c2ccccc2)cc1 (stereo not shown) [CHEMBL572467] | 661 nM
CN(C)CCC(NC(=O)c1ccc(-c2ccc(Cl)cc2)cc1)c1ccc(Cl)cc1 (stereo not shown) [CHEMBL572882] | 75.9 nM
Cc1ccc(C(CCN(C)C)NC(=O)c2ccc(-c3ccc(Cl)cc3)cc2)cc1 (stereo not shown) [CHEMBL572883] | 126 nM
CN(C)CC[C@H](NC(=O)c1ccc(-c2ccc(Cl)cc2)cc1)c1ccc2ccccc2c1 [CHEMBL573392] | 22.9 nM
COc1ccc(-c2ccc(C(=O)NC(CCN(C)C)c3ccc(Cl)cc3)cc2)cc1 (stereo not shown) [CHEMBL573569] | 74.1 nM
COc1ccc(-c2cccc(C(=O)NC(CCN(C)C)c3ccc4ccccc4c3)c2)cc1 (stereo not shown) [CHEMBL573574] | 646 nM
CN(C)CCC(NC(=O)c1cccc(-c2ccc3ccccc3c2)c1)c1ccc(Cl)cc1 (stereo not shown) [CHEMBL573575] | 363 nM
CN(C)CC[C@@H](NC(=O)c1ccc(-c2ccc(Cl)cc2)cc1)c1ccc2ccccc2c1 [CHEMBL573640] | 457 nM
CN(C)CCC(NC(=O)c1ccc(-c2ccccc2)cc1)c1ccc2ccccc2c1 (stereo not shown) [CHEMBL574527] | 120 nM
Cc1ccc(C(CCN(C)C)NC(=O)c2cccc(-c3ccc(Cl)cc3)c2)cc1 (stereo not shown) [CHEMBL574731] | 646 nM
COc1ccc(-c2ccc(C(=O)NC(CCN(C)C)c3ccc(C)cc3)cc2)cc1 (stereo not shown) [CHEMBL575629] | 347 nM
Cc1ccc(C(CCN(C)C)NC(=O)c2ccc(-c3ccc4ccccc4c3)cc2)cc1 (stereo not shown) [CHEMBL575630] | 813 nM
CN(C)CCC(NC(=O)c1cccc(-c2ccccc2)c1)c1ccc2ccccc2c1 (stereo not shown) [CHEMBL575819] | 537 nM
CN(C)CCCC(NC(=O)c1ccc(-c2ccccc2)cc1)c1ccc(Cl)cc1 (stereo not shown) [CHEMBL576746] | 316 nM
COc1ccc(-c2ccc(C(=O)NC(CCN(C)C)c3ccc4ccccc4c3)cc2)cc1 (stereo not shown) [CHEMBL578654] | 105 nM
CN(C)CCC(NC(=O)c1ccc(-c2ccc3ccccc3c2)cc1)c1ccc2ccccc2c1 (stereo not shown) [CHEMBL578853] | 525 nM
CN(C)CCC(NC(=O)c1cccc(-c2ccc(Cl)cc2)c1)c1ccc(Cl)cc1 (stereo not shown) [CHEMBL582835] | 437 nM
CN(C)CCC(NC(=O)c1ccc(-c2ccccc2)cc1)c1ccc(Cl)cc1 (stereo not shown) [CHEMBL583981] | 77.6 nM
NCCCC[C@@H]1NC(=O)[C@H](Cc2c[nH]c3ccccc23)NC(=O)[C@H](CO)NC(=O)CNC(=O)[C@@H]2CCCN2C(=O)[C@H](Cc2ccc(O)cc2)NC1=O [CHEMBL593612] (cyclo(GSWKYP)) | 8.51 nM
